Values of other authors, collected in patent US20210268271A1, “SYSTEMS AND METHODS FOR VISCERAL NEUROMODULATION” (priority 2018, published 2021).

Legend:
[1] = test system: TRPV1 expressing cardiac nerve endings; conditions: in vivo

SMILES | duration of block (deep cardiac plexus) | also measured
C[C@H](CCCC(C)(C)O)[C@H]1CC[C@H]2[C@@H]3CC=C4C[C@@H](O)CC[C@]4(C)[C@H]3CC[C@]12C [25-OH-cholesterol] |  | relative potency among cholesterol oxides (sympathetic ganglia): most potent
C=C(C)[C@]12C[C@@H](C)[C@@]34O[C@](Cc5ccccc5)(O[C@@H]1[C@@H]3C=C(COC(=O)Cc1ccc(O)c(OC)c1)C[C@]1(O)C(=O)C(C)=C[C@@H]41)O2 [RTX, resiniferatoxin] |  | duration of complete ablation of TRPV1 expressing cardiac nerve endings [1]: over 10 weeks
CCCCN1CCCCC1C(=O)Nc1c(C)cccc1C (stereo not shown) [bupivacaine] | approximately 2 hours | 
CCN(CC)CC(=O)Nc1c(C)cccc1C [lidocaine] | approximately 2 hours | 
